For test [1], the target named is T1, recombinant human ALK5 (TGF-βR1) protein (Homo sapiens, UniProt P36897).
T1 construct: purchased Life Technologies PR9075A
T1 sequence (P36897 34-503): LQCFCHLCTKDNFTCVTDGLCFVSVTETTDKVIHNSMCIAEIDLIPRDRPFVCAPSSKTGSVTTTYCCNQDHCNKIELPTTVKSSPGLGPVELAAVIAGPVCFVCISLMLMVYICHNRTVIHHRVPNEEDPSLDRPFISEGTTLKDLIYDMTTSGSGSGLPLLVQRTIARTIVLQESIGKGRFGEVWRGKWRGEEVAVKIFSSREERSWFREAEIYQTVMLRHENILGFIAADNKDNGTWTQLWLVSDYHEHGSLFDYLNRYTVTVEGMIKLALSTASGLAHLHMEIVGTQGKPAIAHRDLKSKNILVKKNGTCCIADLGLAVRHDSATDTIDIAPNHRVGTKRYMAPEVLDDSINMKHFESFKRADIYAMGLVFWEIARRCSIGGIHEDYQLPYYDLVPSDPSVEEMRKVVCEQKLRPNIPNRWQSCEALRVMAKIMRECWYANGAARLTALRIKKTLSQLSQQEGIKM
As to the kind of experiment: Biochemical ALK5 (TGF-βR1) assay to measure pKi (LANCE Ultra ULight kinase assay). As to conditions: apparent pKi, converted from pIC50 by Cheng-Prusoff. The gist of the method: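 Europium TR-FRET kinase assay: the enzyme is exposed to compound for 60 min at room temperature, and reaction with ATP runs 60 min at 37 °C. Percent inhibition relative to DMSO and SD-208 controls gives pIC50, which is converted to pKi.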

In test [2] the test system is TGF-β-stimulated SMAD3 phosphorylation in BEAS-2B cells. The test is described as follows: Cellular ALK5 potency assay, inhibition of TGF-β stimulated pSMAD3 formation in BEAS-2B cells. As to conditions: Homo sapiens, pSMAD3, TGF-β 10 ng/mL, read-out: BEAS2B pIC50 (converted). The class given is cell-based. The gist of the method: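 Reported as pIC50, potency reflects dose-dependent loss of AlphaLISA pSMAD3 signal versus TGF-β-stimulated, compound-free BEAS-2B cells. Compound was applied for 1 h in BSA-containing HBSS buffer before a 30-min challenge with TGF-β at 10 ng/mL final.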

Regarding `Cc1cccc(-c2nccc(Nc3ccnc(Nc4csc(C(=O)OC5CCNCC5)c4)n3)n2)n1` [Compound 591, 4-piperidyl 4-[[4-[[2-(6-methyl-2-pyridyl)pyrimidin-4-yl]amino]pyrimidin-2-yl]amino]thiophene-2-carboxylate], in test [1], the Ki is 0.0398 to 0.316 nM. Besides, the IC50 in test [2] is 25.1 to 158 nM.

In the case of `Cc1cccc(-c2nccc(Nc3ccnc(Nc4ncc(C(=O)OC[C@H]5CCCN5)s4)n3)n2)n1` [Compound 592, [(2R)-pyrrolidin-2-yl]methyl 2-[[4-[[2-(6-methyl-2-pyridyl)pyrimidin-4-yl]amino]pyrimidin-2-yl]amino]thiazole-5-carboxylate], the Ki in test [1] was 3.98 to 31.6 nM. Moreover, the IC50 in test [2] is 25.1 to 158 nM.

With `Cc1cccc(-c2nccc(Nc3ccnc(Nc4nc(C(=O)OC[C@H]5CCCN5)cs4)n3)n2)n1` [Compound 593, [(2R)-pyrrolidin-2-yl]methyl 2-[[4-[[2-(6-methyl-2-pyridyl)pyrimidin-4-yl]amino]pyrimidin-2-yl]amino]thiazole-4-carboxylate], the Ki in test [1] was 0.398 to 3.16 nM. In addition, the IC50 in test [2] was 25.1 to 158 nM.

For `Cc1cccc(-c2nccc(Nc3ccnc(Nc4ccc(C(=O)O[C@@H]5CCCNC5)nc4)n3)n2)n1` [Compound 594, [(3R)-3-piperidyl] 5-[[4-[[2-(6-methyl-2-pyridyl)pyrimidin-4-yl]amino]pyrimidin-2-yl]amino]pyridine-2-carboxylate], the Ki in test [1] was 0.0398 to 0.316 nM. The IC50 in test [2] is 200 to 1260 nM.

For `Cc1cccc(-c2nccc(Nc3ccnc(Nc4cncc(C(=O)OC[C@@H]5CCCNC5)c4)n3)n2)n1` [Compound 595], in test [1], the Ki was 0.398 to 3.16 nM. For the same molecule, the IC50 in test [2] was 25.1 to 158 nM.

For `Cc1cccc(-c2nccc(Nc3ccnc(Nc4ccc(C(=O)OC5CCCNCC5)nc4)n3)n2)n1` (stereo not drawn) [Compound 596, azepan-4-yl 5-[[4-[[2-(6-methyl-2-pyridyl)pyrimidin-4-yl]amino]pyrimidin-2-yl]amino]pyridine-2-carboxylate], the Ki in test [1] is 0.0398 to 0.316 nM. The IC50 in test [2] was 200 to 1260 nM.

Take `Cc1cccc(-c2nccc(Nc3ccnc(Nc4ccc(C(=O)OC[C@@H]5CCCCN5)nc4)n3)n2)n1` [Compound 597, [(2S)-2-piperidyl]methyl 5-[[4-[[2-(6-methyl-2-pyridyl)pyrimidin-4-yl]amino]pyrimidin-2-yl]amino]pyridine-2-carboxylate]: the Ki in test [1] is 0.0398 to 0.316 nM. The IC50 in test [2] is 25.1 to 158 nM.

Regarding `Cc1cccc(-c2nccc(Nc3ccnc(Nc4csc(C(=O)OCCN5CCC[C@@H](N)C5)c4)n3)n2)n1` [Compound 598, 2-[(3R)-3-amino-1-piperidyl]ethyl 4-[[4-[[2-(6-methyl-2-pyridyl)pyrimidin-4-yl]amino]pyrimidin-2-yl]amino]thiophene-2-carboxylate], the Ki in test [1] was 0.0398 to 0.316 nM. Also, the IC50 in test [2] was 25.1 to 158 nM.

On to `Cc1cccc(-c2nccc(Nc3ccnc(Nc4csc(C(=O)OCCN5CCN6CCCC6C5)c4)n3)n2)n1` (stereo not drawn) [Compound 599, 2-(3,4,6,7,8,8a-hexahydro-1H-pyrrolo[1,2-a]pyrazin-2-yl)ethyl 4-[[4-[[2-(6-methyl-2-pyridyl)pyrimidin-4-yl]amino]pyrimidin-2-yl]amino]thiophene-2-carboxylate], for which the Ki in test [1] is 0.0398 to 0.316 nM. The IC50 in test [2] was 25.1 to 158 nM.

Take `Cc1cccc(-c2nccc(Nc3ccnc(Nc4csc(C(=O)OC[C@H]5CCCNC5)c4)n3)n2)n1` [Compound 600, [(3S)-3-piperidyl]methyl 4-[[4-[[2-(6-methyl-2-pyridyl)pyrimidin-4-yl]amino]pyrimidin-2-yl]amino]thiophene-2-carboxylate]: the Ki in test [1] is 0.0398 to 0.316 nM. Moreover, the IC50 in test [2] was 25.1 to 158 nM.

On to `Cc1cccc(-c2nccc(Nc3ccnc(Nc4cc(C(=O)O[C@@H]5CCNC5)ccn4)n3)n2)n1` [Compound 601, [(3R)-pyrrolidin-3-yl] 2-[[4-[[2-(6-methyl-2-pyridyl)pyrimidin-4-yl]amino]pyrimidin-2-yl]amino]pyridine-4-carboxylate], for which the Ki in test [1] is 3.98 to 31.6 nM. In test [2], the IC50 was 200 to 1260 nM.

As for `Cc1cccc(-c2nccc(Nc3ccnc(Nc4csc(C(=O)OCCC5CNC5)c4)n3)n2)n1` [Compound 602, 2-(azetidin-3-yl)ethyl 4-[[4-[[2-(6-methyl-2-pyridyl)pyrimidin-4-yl]amino]pyrimidin-2-yl]amino]thiophene-2-carboxylate], the Ki in test [1] is 0.0398 to 0.316 nM. Moreover, in test [2], the IC50 was 25.1 to 158 nM.

Consider `Cc1cccc(-c2nccc(Nc3ccnc(Nc4cncc(CN5CC(C(=O)O)C5)c4)n3)n2)n1` [Compound 603, 1-[[5-[[4-[[2-(6-methyl-2-pyridyl)pyrimidin-4-yl]amino]pyrimidin-2-yl]amino]-3-pyridyl]methyl]azetidine-3-carboxylic acid], for which the Ki in test [1] was 0.0398 to 0.316 nM. In addition, the IC50 in test [2] is 1580 to 10000 nM.

For the molecule `Cc1cccc(-c2nccc(Nc3ccnc(Nc4ncc(N5C[C@@H](C)N[C@@H](C)C5)s4)n3)n2)n1` [Compound 604, N2-[5-[(3R,5S)-3,5-dimethylpiperazin-1-yl]thiazol-2-yl]-N4-[2-(6-methyl-2-pyridyl)pyrimidin-4-yl]pyrimidine-2,4-diamine], in test [1], the Ki was 3.98 to 31.6 nM. Further, the IC50 in test [2] is 200 to 1260 nM.

For the molecule `Cc1cccc(-c2nccc(Nc3ccnc(Nc4ccc(C(=O)OC[C@H]5CNCCO5)nc4)n3)n2)n1` [Compound 605, [(2R)-morpholin-2-yl]methyl 5-[[4-[[2-(6-methyl-2-pyridyl)pyrimidin-4-yl]amino]pyrimidin-2-yl]amino]pyridine-2-carboxylate], in test [1], the Ki is 0.0398 to 0.316 nM. The IC50 in test [2] is 200 to 1260 nM.

Regarding `Cc1cccc(-c2nccc(Nc3ccnc(Nc4cncc(C(=O)OCC5CCNCC5)c4)n3)n2)n1` [Compound 606, 4-piperidylmethyl 5-[[4-[[2-(6-methyl-2-pyridyl)pyrimidin-4-yl]amino]pyrimidin-2-yl]amino]pyridine-3-carboxylate], in test [1], the Ki was 0.398 to 3.16 nM. Further, the IC50 in test [2] was 25.1 to 158 nM.

Consider `Cc1cccc(-c2nccc(Nc3ccnc(Nc4csc(C(=O)OCC5CCNCC5)c4)n3)n2)n1` [Compound 607, 4-piperidylmethyl 4-[[4-[[2-(6-methyl-2-pyridyl)pyrimidin-4-yl]amino]pyrimidin-2-yl]amino]thiophene-2-carboxylate], for which the Ki in test [1] is 0.0398 to 0.316 nM. In test [2], the IC50 was 25.1 to 158 nM.

Regarding `Cc1cccc(-c2nccc(Nc3ccnc(Nc4cc(C(=O)OCC5CNC5)ccn4)n3)n2)n1` [Compound 608, azetidin-3-ylmethyl 2-[[4-[[2-(6-methyl-2-pyridyl)pyrimidin-4-yl]amino]pyrimidin-2-yl]amino]pyridine-4-carboxylate], the Ki in test [1] was 3.98 to 31.6 nM. In addition, the IC50 in test [2] was 200 to 1260 nM.

Regarding `Cc1cccc(-c2nccc(Nc3ccnc(Nc4ncc(C5=CCNC5)s4)n3)n2)n1` [Compound 609, N2-[5-(2,5-dihydro-1H-pyrrol-3-yl)thiazol-2-yl]-N4-[2-(6-methyl-2-pyridyl)pyrimidin-4-yl]pyrimidine-2,4-diamine], the Ki in test [1] was 0.398 to 3.16 nM. Further, the IC50 in test [2] is 25.1 to 158 nM.

`Cc1cccc(-c2nccc(Nc3ccnc(Nc4ccnc(C(=O)O)c4)n3)n2)n1` [Compound 610, 4-[[4-[[2-(6-methyl-2-pyridyl)pyrimidin-4-yl]amino]pyrimidin-2-yl]amino]pyridine-2-carboxylic acid]: the Ki in test [1] is 0.0398 to 0.316 nM. In test [2], the IC50 is 1580 to 10000 nM.

For `Cc1cccc(-c2nccc(Nc3ccnc(Nc4nc(C(=O)OC[C@@H]5CCNC5)cs4)n3)n2)n1` [Compound 611, [(3R)-pyrrolidin-3-yl]methyl 2-[[4-[[2-(6-methyl-2-pyridyl)pyrimidin-4-yl]amino]pyrimidin-2-yl]amino]thiazole-4-carboxylate], in test [1], the Ki is 0.398 to 3.16 nM. For the same molecule, the IC50 in test [2] was 200 to 1260 nM.

As for `Cc1cccc(-c2nccc(Nc3ccnc(Nc4ccc(C(=O)OC[C@@H]5CCCN5)nc4)n3)n2)n1` [Compound 612, [(2S)-pyrrolidin-2-yl]methyl 5-[[4-[[2-(6-methyl-2-pyridyl)pyrimidin-4-yl]amino]pyrimidin-2-yl]amino]pyridine-2-carboxylate], the Ki in test [1] was 0.0398 to 0.316 nM. The IC50 in test [2] was 25.1 to 158 nM.

In the case of `Cc1cccc(-c2nccc(Nc3ccnc(Nc4ccc(C(=O)OCCN5CCN6CCCC6C5)nc4)n3)n2)n1` (stereo not drawn) [Compound 613, 2-(3,4,6,7,8,8a-hexahydro-1H-pyrrolo[1,2-a]pyrazin-2-yl)ethyl 5-[[4-[[2-(6-methyl-2-pyridyl)pyrimidin-4-yl]amino]pyrimidin-2-yl]amino]pyridine-2-carboxylate], the Ki in test [1] was 0.398 to 3.16 nM. Further, the IC50 in test [2] is 25.1 to 158 nM.

For `Cc1cccc(-c2nccc(Nc3ccnc(Nc4cncc(CN5CC(C(=O)OCC6CNC6)C5)c4)n3)n2)n1` [Compound 614, azetidin-3-ylmethyl 1-[[5-[[4-[[2-(6-methyl-2-pyridyl)pyrimidin-4-yl]amino]pyrimidin-2-yl]amino]-3-pyridyl]methyl]azetidine-3-carboxylate], the Ki in test [1] is 0.0398 to 0.316 nM. Besides, the IC50 in test [2] is 25.1 to 158 nM.

The values are drawn from patent US20230399312A1, “SUBSTITUTED PYRIMIDINES AND METHODS OF USE” (THERAVANCE BIOPHARMA R&D IP, LLC, priority 2020, published 2023).
